Earlier results as cited in patent US11866789B2, “Targeted therapies for cancer” (THE TRANSLATIONAL GENOMICS RESEARCH INSTITUTE, priority 2015, dated 2024).

Key:
[1] = tested on: advanced biliary tract cancer or hepatobiliary cancer; conditions: 17 patients evaluated
[2] = tested on: Cell line models expressing NRG1 fusions; conditions: See Reference 29

In the case of `CS(=O)(=O)CCNCc1ccc(-c2ccc3ncnc(Nc4ccc(OCc5cccc(F)c5)c(Cl)c4)c3c2)o1` [Lapatinib], the objective response [1] is given as “no objective response” and the “sensitivity of NRG1 fusion cell line models” value [2] is given as “increased sensitivity”.
